Experimental data as given in patent US8399416B2, “Method of using heparin binding motif for treating asthma” (National Tsing Hua University, priority 2008, dated 2013).
Residue numbers refer to the chain shown, from its start. No end group written: not given here.

Experiments:
[1] = biological target: T1, ECP wt (Homo sapiens, UniProt P12724); assay: Intrinsic tryptophan fluorescence titration of ECP wt with heparin oligosaccharides; type: binding; details: read-out: Kd, ECP wt, PBS at 25° C.
T1 construct: His6 (C); made in house; host or cells: E. coli BL21-CodonPlus (DE3)
T1 sequence (P12724 28-160): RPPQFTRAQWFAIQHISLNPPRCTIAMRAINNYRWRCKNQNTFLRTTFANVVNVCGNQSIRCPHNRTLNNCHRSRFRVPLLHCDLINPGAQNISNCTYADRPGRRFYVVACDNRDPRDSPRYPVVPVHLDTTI
Description: (§1) FIG. 5. ITFE profiles of ECP wt and mt1 with dp5. Tryptophan titration emission spectra of […] ECP wt or mt1 bound with dp5. The emission spectra at 340 nm were recorded. The resulting isotherms were fitted by nonlinear regression least-squares computer fit using the KaleidaGraph Synergy Software. ΔF, the relative fluorescence change, equals F0−Fobs, where F0 and Fobs represent the initial and observed fluorescence values, respectively.
(§2) The binding affinities of wild-type and mutant ECP for heparin oligosaccharides were subsequently monitored by intrinsic tryptophan fluorescence titration (Lau, E. K., et al. (2004) The Journal of biological chemistry 279, 22294-22305).
(§3) Binding of ECP to heparin was monitored by changes in intrinsic tryptophan fluorescence emission (IFTE). ECP (200 nM) in PBS at 25° C. was titrated with small aliquots of a high concentration of pentasaccharides with minimal dilution (<2%). Protein fluorescence measurements were recorded 2 min after each addition on a Hitachi 8000 spectrofluorimeter at emission wavelength of 340 nm using an excitation wavelength of 280 nm. ΔF, the relative fluorescence change, equals F0−Fobs, where F0 and Fobs represent the initial and observed fluorescence values, respectively. […]

[2] = biological target: T2, ECP mt1 (Homo sapiens, UniProt P12724, K65A/R61A/R63A/W62A); assay: Intrinsic tryptophan fluorescence titration of ECP mt1 with heparin oligosaccharides; type: binding; details: read-out: Kd, ECP mt1, PBS at 25° C.
T2 construct: recombinant mature ECP was injected into the rat circulation; His6 (C); made in house; host or cells: E. coli BL21-CodonPlus(DE3)
T2 sequence (P12724 28-160 R61A/W62A/R63A/K65A): T1 sequence (P12724 28-160) with R34A, W35A, R36A, K38A
Description: as §1
Amino acid residues R34, W35, R36, and K38 of ECP were simultaneously substituted to alanine using QuickChange site-directed mutagenesis (Stratagene, La Jolla, Calif.) and the resultant mutant was named ECP mt1. […]
as §2
Binding of ECP to heparin was monitored by changes in intrinsic tryptophan fluorescence emission (IFTE). […] Protein fluorescence measurements were recorded 2 min after each addition on a Hitachi 8000 spectrofluorimeter at emission wavelength of 340 nm using an excitation wavelength of 280 nm. ΔF, the relative fluorescence change, equals F0−Fobs, where F0 and Fobs represent the initial and observed fluorescence values, respectively. […]

[3] = biological target: C1 peptide (Homo sapiens, UniProt P12724); assay: Tryptophan fluorescence titration of C1 peptide with heparin oligosaccharides; type: binding; details: read-out: Kd, C1 peptide; 1 μM peptide; tryptophan fluorescence at 340 nm
Description: FIG. 10. Titration profiles of synthetic peptides by synthetic heparin oligosaccharides. Titrations were carried out on 1 μM peptides in the presence of heparin oligosaccharides. The Kd of each peptide-oligosaccharide interaction was determined by measuring the fluorescence change of intrinsic tryptophan at 340 nm. Data were fitted to a single-binding-site curve using nonlinear least-squares analysis.
as §3

[4] = system: Beas-2B cells; details: biotinylated peptides, 1 h at 4° C.
Description: FIG. 7. Synthetic peptides inhibit ECP binding to cells. A, Beas-2B cells were preincubated with peptides in RPMI 1640 medium for 30 min at 4° C. before incubation with MBP-ECP for an additional 1 h. After treatment, the cells were washed with PBS and fixed with PFA. The level of bound MBP-ECP was assessed by ELISA. The amount of MBP-ECP bound to cells without peptide treatment was set to 100%. The data shown are the means of triplicate experiments. B, Beas2-B cells were incubated with biotinylated peptides for 1 h at 4° C. The amount of peptides bound to cells was assessed as for FIG. 3.
To investigate whether the RWRCK (SEQ ID NO: 8) motif is directly responsible for heparin binding, cell ELISA was conducted using a synthetic peptide, C1 (SEQ ID NO: 3), along with a positive control peptide derived from HIV-TAT, TAT (SEQ ID NO: 6) (Vives, E., et al. (1997) The Journal of biological chemistry 272, 16010-16017; Ziegler, A. and Seelig, J. (2004) Biophysical journal 86, 254-263). […] Therefore, synthetic peptides with heparin binding activity may compete with ECP for cellular binding. Furthermore, the cell surface binding ability of peptides was tested using cell ELISA assay.

[5] = AMAC-labeled LMWH, increasing peptide concentrations, room temperature 15 min
Description: FIG. 9. FACE analysis of synthetic peptides. AMAC-labeled LMWH were incubated without or with increasing concentrations of C1, TAT, D1 and R1 peptides at room temperature for 15 min. Samples were loaded and separated by agarose gel electrophoresis as described for FIG. 2.
Synthetic heparin oligosaccharide (FIG. 1) (Lee, C. J., et al. (2004) J Am Chem Soc 126, 476-477), low molecular weight heparin (LMWH) and PI-88 (kindly provided by Progen Inc., Australia) were labeled with 2-aminoacridone (AMAC) as described (Calabro, A., et al. (2000) Glycobiology 10, 273-281). AMAC-oligosaccharide and proteins were incubated at room temperature for 15 min, loaded onto 1% gels and electrophoresed as described (Holmes, O., et al. (2007) J Mol Biol 367, 395-408).
In addition, because EDN contains a conventional heparin binding sequence, the corresponding peptide, D1 (SEQ ID NO: 4), was also synthesized and tested.

[6] = PBS buffer at 25° C.; HMWH 10-20 μM
Description: FIG. 11. Isothermal titration calorimetry of heparin-peptide interaction. The top panels show the differential power time course. Raw data for sequential 6-μl injections of each synthetic peptide in PBS buffer at 25° C. TAT (positive control), B, R1 (negative control), C, C1, and D, D1 into the sample cell containing 1.4 ml HMWH solution (10-20 μM). The total heat released in each injection is proportional to the area under the corresponding peak. […] The solid line represents a non-linear least squares of the reaction heat for the injection.

[7] = system: peri-bronchiolar and alveolar inflammation; parameters: species or system mice; details: mouse, in vivo
Text: FIG. 15. Tissue pathology staining in mice. 5-μm formalin-fixed lung sections were stained with H & E in (A) control (B) mIT, (C) eIN, (D) eIN+mIT, (E) mIT+eIN and (F) eIN+mIT+eIN mice. (G) Peribronchial and alveolar inflammation scores.
Animals Study protocol Female Balb/c mice 8 weeks of age were obtained from the National Laboratory Breeding Research Center in Taiwan and were raised in a specific pathogen-free environment. The mice were divided into six groups: (1) control, (2) mite intra-tracheal (mIT) alone, (3) ECP^32-41 (SEQ ID NO: 9) intranasal, (eIN) alone, (4) pre-treated group: eIN+mIT, (5) post-treated group: mIT+eIN and (6) pre+post-treated group eIN+mIT+eIN. Mite crude extract allergen (1.6 μg/μl) was prepared and well emulsified in complete Freund's adjuvant (CFA; Sigma, St Louis, Mo., USA) at a ratio of 1:1 at 4° C. The mIT, eIN and eIN+mIT groups were immunized subcutaneously with 50 μl emulsified mite protein on day 1 and day 8. […]
Histopathological analysis Lung sections stained with hematoxylin and eosin (H&E) were assigned a unit value for alveolar, peri-bronchiolar and total inflammation by computing the means of three independent scores for three randomly selected view-fields. […] Total inflammatory scores were determined as the sum of the peri-bronchiolar and alveolar inflammatory scores. […]

[8] = system: ECP binding to Beas-2B cells; assay: Competitive inhibition of MBP-ECP binding to Beas-2B cells (cell ELISA); type: cell-based, human; details: Beas-2B cells preincubated with peptides 30 min at 4° C.
Description: FIG. 3. Heparin oligosaccharides inhibit ECP binding to cells. […] The amount of MBP-ECP bound to cells without GAG treatment was set to 100%. C, control (cells were incubated with MBP.) The data shown are the means of triplicate experiments.
FIG. 7. Synthetic peptides inhibit ECP binding to cells. […] The data shown are the means of triplicate experiments.
Beas-2B, a human bronchial epithelial cell line, was cultured in RPMI 1640 medium (Sigma-Aldrich) supplemented with heat-inactivated 10% fetal bovine serum (Gibco/Invitrogen, Carlsbad, Calif.).
The ability of MBP-ECP to bind cells in the presence of serial dilutions of oligosaccharides or peptides was determined as described (Fan, T. C., et al. (2007) Traffic 8, 1778-1795). At the present invention, synthetic heparins (dp3-9) were tested for their ability to interfere with ECP binding to Beas-2B cells. Briefly, confluent monolayers of Beas-2B cells in 96-well plates were pretreated with various concentrations of oligosaccharides or peptides in serum-free RPMI 1640 medium at 4° C. for 30 min before incubation with 5 μg/ml MBP-ECP at 4° C. for 1 h. The cells were then washed with ice-cold PBS and fixed with 2% PFA at room temperature for 15 min prior to blocking with 2% BSA/PBS at room temperature for 90 min. The level of bound MBP-ECP was quantified by ELISA analysis. MBP-ECP was detected using mouse monoclonal anti-MBP and goat anti-mouse horseradish peroxidase (HRP)-conjugated secondary antibody, followed by the enhanced chemiluminescence detection system. The amount of MBP-ECP bound to cells without oligosaccharide or peptide treatment was set to 100%.

CO[C@H]1O[C@H](COS(=O)(=O)O)[C@@H](O[C@@H]2O[C@@H](C(=O)O)[C@@H](O[C@H]3O[C@H](COS(=O)(=O)O)[C@@H](O[C@@H]4O[C@@H](C(=O)O)[C@@H](O[C@H]5O[C@H](COS(=O)(=O)O)[C@@H](O[C@@H]6O[C@@H](C(=O)O)[C@@H](O[C@H]7O[C@H](COS(=O)(=O)O)[C@@H](O[C@@H]8O[C@@H](C(=O)O)[C@@H](O[C@H]9O[C@H](COS(=O)(=O)O)[C@@H](O)[C@H](O)[C@H]9NS(=O)(=O)O)[C@H](O)[C@H]8OS(=O)(=O)O)[C@H](O)[C@H]7NS(=O)(=O)O)[C@H](O)[C@H]6OS(=O)(=O)O)[C@H](O)[C@H]5NS(=O)(=O)O)[C@H](O)[C@H]4OS(=O)(=O)O)[C@H](O)[C@H]3NS(=O)(=O)O)[C@H](O)[C@H]2OS(=O)(=O)O)[C@H](O)[C@H]1NS(=O)(=O)O [dp9]
Kd [1]: 62.6 nM
Kd [2]: 400 nM
Kd [3]: 229 nM

MTQGRCKPVNK-biotin [R1]
cell surface binding ability of peptides [4]: devoid of such function
interaction with LMWH (FACE) [5]: did not bind heparin
heat release on binding to HMWH (ITC) [6]: no heat release

NYRWRCKNQN [ECP^32-41]
allergic airway inflammatory pathologies (H&E) [7]: did not demonstrate allergic airway inflammatory pathologies

NYRWRCKNQNK-biotin [C1]
binding of MBP-ECP to cell-surface HS in the presence of peptide [8]: significantly reduced
cell surface binding ability of peptides [4]: bound to the cell surface
interaction with LMWH (FACE) [5]: decreased amount of free AMAC-LMWH signal
heat release on binding to HMWH (ITC) [6]: exothermal reaction modes were clearly observed

YGRKKRRQRRRK-biotin [TAT]
binding of MBP-ECP to cell-surface HS in the presence of peptide [8]: significantly reduced
cell surface binding ability of peptides [4]: bound to the cell surface
interaction with LMWH (FACE) [5]: decreased amount of free AMAC-LMWH signal
heat release on binding to HMWH (ITC) [6]: significant exothermal reaction mode
